According to US20080293771A1, “AZACYCLYLBENZAMIDE DERIVATIVES AS HISTAMINE-3 ANTAGONISTS” (Wyeth, priority 2007, published 2008):
Where a name gives a salt, the structure may show the parent alone.

biological target: T1, Human Histamine H3 Receptor (Homo sapiens, UniProt Q9Y5N1); test: Methyl histamine binding in Human Histamine H3 Receptor Cell Line; conditions: read-out: hH3 Binding Ki
T1 construct: expressed in transfected cells; host or cells: HEK293T (stably transfected; membrane preparation)
Description: Evaluation of Methyl histamine binding in Human Histamine H3 Receptor Cell Line
The affinity of test compounds for the histamine 3 (H3) receptor is evaluated in the following manner. […] Cells are scraped from the plate, transferred to centrifuge tubes, washed one time in PBS by centrifugation in a Sorvall RT7 Plus centrifuge (2000 rpm 10 minutes, 4° C.). The resulting pellets are stored at −80° C. until ready for use. Cells are re-suspended in buffer (50 mM Tris pH=7.5) and placed in a Dounce homogenizer, douncing ten times to homogenize cells. The homogenate is spun down by centrifugation (Sorvall RT7 Plus, 1800 rpm 10 minutes, 4° C.). The supernatant is placed in a Corex tube and spun down by centrifugation (Sorvall RC 5c Plus, 17,000 rpm 20 minutes, 4° C.). The pellet is resuspended in buffer (50 mM Tris, pH 7.5). Protein concentration (ug/ul) is determined using the Micro-BCA Protein Determination. The binding assay is set up in a 96 well microtiter plate in a total volume of 250 uL. Non-specific binding is determined in the presence of 10 uM clobenpropit. The final radioligand concentration is 1 nM. The test compound is serially diluted using the Beckman Biomek2000 to a final approximate range of 100 uM to 100 pM. Membranes are suspended in buffer, homogenized in 2 bursts of ten seconds using a Vitris mechanical homogenizer set at power setting 5. Ten μg of membranes are added to each well. Following a one hour incubation at 30° C., the reaction is terminated by the addition of ice cold buffer and rapid filtration with a Packard Filtermate Harvester through a GF/B filter pre-soaked with 1% PEI for one hour. The plate is dried for one hour at 37° C. and 60 μL Microscint Scintillant is added to each well. The CPM per well is measured on a Packard Top Count NXT. Ki values are determined in nM. […] CPM values are expressed as % specific binding and plotted vs compound concentration. A curve is fitted using a four-parameter logistic fit and the IC50 value is determined. The Ki is calculated from this using the Cheng-Prusoff equation: […]=IC50/1+(L/Kd) where L=concentration of free radioligand used in the assay, and Kd is the dissociation constant of the radioligand for the receptor. L is determined for each experiment by counting an aliquot of the diluted radioligand (corresponding to that added to each well) and the Kd has previously been determined under identical conditions for this cell line/radioligand.

T1 sequence (Q9Y5N1 whole entry): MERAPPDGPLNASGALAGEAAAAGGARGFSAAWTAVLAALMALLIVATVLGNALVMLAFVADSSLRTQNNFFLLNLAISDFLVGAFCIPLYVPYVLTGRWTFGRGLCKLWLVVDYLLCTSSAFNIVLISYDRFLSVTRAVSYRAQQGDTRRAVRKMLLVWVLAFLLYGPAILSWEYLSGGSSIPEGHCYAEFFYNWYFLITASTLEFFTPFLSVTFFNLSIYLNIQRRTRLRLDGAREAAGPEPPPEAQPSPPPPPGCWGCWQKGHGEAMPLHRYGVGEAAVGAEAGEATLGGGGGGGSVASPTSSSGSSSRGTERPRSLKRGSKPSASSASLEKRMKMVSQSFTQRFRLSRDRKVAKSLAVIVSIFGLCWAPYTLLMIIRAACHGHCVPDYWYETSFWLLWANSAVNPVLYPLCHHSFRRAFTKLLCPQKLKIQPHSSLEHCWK

Ki [nM]	Compound
> 100	Cc1nc2ccccc2n1-c1ccc(C(=O)N(C)C2CCNCC2)cc1 [Example 30, N-Methyl-4-(2-methylbenzimidazol-1-yl)-N-piperidin-4-yl-benzamide Hydrochloride]
≤ 10	Cc1nc2ccccc2n1-c1ccc(C(=O)N(C)C2CCN(C(C)C)CC2)cc1 [Example 31, N-(1-isopropylpiperidin-4-yl)-N-methyl-4-(2-methyl-1H-benzimidazol-1-yl)benzamide]
≤ 10	Cc1nc2ccccc2n1-c1ccc(C(=O)N(C)C2CCN(C3CCCC3)CC2)cc1 [Example 32, N-(1-cyclopentylpiperidin-4-yl)-N-methyl-4-(2-methyl-1H-benzimidazol-1-yl)benzamide]
> 100	Cc1nc2ccccc2n1-c1ccc(C(=O)N(C)C2CCN(C3CCCCC3)CC2)cc1 [Example 33, N-(1-cyclohexylpiperidin-4-yl)-N-methyl-4-(2-methyl-1H-benzimidazol-1-yl)benzamide]
10.1 to 50	Cc1nc2ccccc2n1-c1ccc(C(=O)N(C)C2CCN(C3CCC3)CC2)cc1 [Example 34, N-(1-cyclobutylpiperidin-4-yl)-N-methyl-4-(2-methyl-1H-benzimidazol-1-yl)benzamide]
> 100	Cc1nc2ccccc2n1Cc1ccc(C(=O)N(C)[C@@H]2CCNC2)cc1 [Example 35, N-Methyl-4-[(2-methylbenzimidazol-1-yl)methyl]-N—(R)-pyrrolidin-3-yl-benzamide Hydrochloride]
> 100	CN(C(=O)c1ccc(Cn2cnc3ccccc32)cc1)[C@@H]1CCNC1 [Example 36, (R)-4-((1H-benzo[d]imidazol-1-yl)methyl)-N-methyl-N-(pyrrolidin-3-yl)benzamide Hydrochloride]
10.1 to 50	Cc1nc2ccccc2n1Cc1ccc(C(=O)N(C)[C@@H]2CCN(C3CCCCC3)C2)cc1 [Example 40, N-[(3R)-1-cyclohexylpyrrolidin-3-yl]-N-methyl-4-[(2-methyl-1H-benzimidazol-1-yl)methyl]benzamide]
50.1 to 100	Cc1nc2ccccc2n1Cc1ccc(C(=O)N(C)C2CCN(C(C)C)CC2)cc1 [Example 46, N-(1-isopropylpiperidin-4-yl)-N-methyl-4-[(2-methyl-1H-benzimidazol-1-yl)methyl]benzamide]
> 100	Cc1nc2ccccc2n1Cc1ccc(C(=O)N(C)C2CCN(C3CCC3)CC2)cc1 [Example 47, N-(1-cyclobutylpiperidin-4-yl)-N-methyl-4-[(2-methyl-1H-benzimidazol-1-yl)methyl]benzamide]
> 100	Cc1nc2ccccc2n1Cc1ccc(C(=O)N(C)C2CCN(C3CCCC3)CC2)cc1 [Example 48, N-(1-cyclopentylpiperidin-4-yl)-N-methyl-4-[(2-methyl-1H-benzimidazol-1-yl)methyl]benzamide]
50.1 to 100	CC(C)N1CCC(N(C)C(=O)c2ccc(Cn3cnc4ccccc43)cc2)CC1 [Example 49, 4-(1H-benzimidazol-1-ylmethyl)-N-(1-isopropylpiperidin-4-yl)-N-methylbenzamide]
> 100	CN(C(=O)c1ccc(Cn2cnc3ccccc32)cc1)C1CCN(C2CCC2)CC1 [Example 50, 4-(1H-benzimidazol-1-ylmethyl)-N-(1-cyclobutylpiperidin-4-yl)-N-methylbenzamide]
> 100	CN(C(=O)c1ccc(Cn2cnc3ccccc32)cc1)C1CCN(C2CCCC2)CC1 [Example 51, 4-(1H-benzimidazol-1-ylmethyl)-N-(1-cyclopentylpiperidin-4-yl)-N-methylbenzamide]
≤ 10	Cc1nc2cc(C#N)ccc2n1-c1ccc(C(=O)N(C)[C@@H]2CCN(C(C)C)C2)cc1 [Example 54, 4-(5-cyano-2-methyl-1H-benzimidazol-1-yl)-N-[(3R)-1-isopropylpyrrolidin-3-yl]-N-methylbenzamide]
≤ 10	Cc1nc2cc(C#N)ccc2n1-c1ccc(C(=O)N(C)[C@@H]2CCN(C3CCC3)C2)cc1 [Example 55, 4-(5-cyano-2-methyl-1H-benzimidazol-1-yl)-N-[(3R)-1-cyclobutylpyrrolidin-3-yl]-N-methylbenzamide]
10.1 to 50	Cc1nc2cc(C#N)ccc2n1-c1ccc(C(=O)N(C)[C@@H]2CCN(C3CCCC3)C2)cc1 [Example 56, 4-(5-cyano-2-methyl-1H-benzimidazol-1-yl)-N-[(3R)-1-cyclopentylpyrrolidin-3-yl]-N-methylbenzamide]
> 100	CN(C(=O)c1ccc(-n2cc3ccccc3n2)cc1)[C@@H]1CCNC1 [Example 60a, (R)-4-Indazol-2-yl-N-methyl-N-pyrrolidin-3-yl-benzamide]

Ki [nM]	Compound
> 100	CN(C(=O)c1ccc(-n2ncc3ccccc32)cc1)[C@@H]1CCNC1 [Example 60b, (R)-4-Indazol-1-yl-N-methyl-N-pyrrolidin-3-yl-benzamide]
≤ 10	CC(C)N1CC[C@@H](N(C)C(=O)c2ccc(-n3cc4ccccc4n3)cc2)C1 [Example 61, 4-(2H-indazol-2-yl)-N-[(3R)-1-isopropylpyrrolidin-3-yl]-N-methylbenzamide]
≤ 10	CN(C(=O)c1ccc(-n2cc3ccccc3n2)cc1)[C@@H]1CCN(C2CCC2)C1 [Example 62, N-[(3R)-1-cyclobutylpyrrolidin-3-yl]-4-(2H-indazol-2-yl)-N-methylbenzamide]
≤ 10	CN(C(=O)c1ccc(-n2cc3ccccc3n2)cc1)[C@@H]1CCN(C2CCCC2)C1 [Example 63, N-[(3R)-1-cyclopentylpyrrolidin-3-yl]-4-(2H-indazol-2-yl)-N-methylbenzamide]
≤ 10	CC(C)N1CC[C@@H](N(C)C(=O)c2ccc(-n3ncc4ccccc43)cc2)C1 [Example 64, 4-(1H-indazol-1-yl)-N-[(3R)-1-isopropylpyrrolidin-3-yl]-N-methylbenzamide]
≤ 10	CN(C(=O)c1ccc(-n2ncc3ccccc32)cc1)[C@@H]1CCN(C2CCC2)C1 [Example 65, N-[(3R)-1-cyclobutylpyrrolidin-3-yl]-4-(1H-indazol-1-yl)-N-methylbenzamide]
10.1 to 50	CN(C(=O)c1ccc(-n2ncc3ccccc32)cc1)[C@@H]1CCN(C2CCCC2)C1 [Example 66, N-[(3R)-1-cyclopentylpyrrolidin-3-yl]-4-(1H-indazol-1-yl)-N-methylbenzamide]
> 100	CN(C(=O)c1ccc(-n2ncc3ccccc32)cc1)C1CCNCC1 [Example 68]
50.1 to 100	CC(C)N1CCC(N(C)C(=O)c2ccc(-n3cc4ccccc4n3)cc2)CC1 [Example 69, 4-(2H-indazol-2-yl)-N-(1-isopropylpiperidin-4-yl)-N-methylbenzamide]
> 100	CN(C(=O)c1ccc(-n2cc3ccccc3n2)cc1)C1CCN(C2CCC2)CC1 [Example 70, N-(1-cyclobutylpiperidin-4-yl)-4-(2H-indazol-2-yl)-N-methylbenzamide]
> 100	CN(C(=O)c1ccc(-n2cc3ccccc3n2)cc1)C1CCN(C2CCCC2)CC1 [Example 71, N-(1-cyclopentylpiperidin-4-yl)-4-(2H-indazol-2-yl)-N-methylbenzamide]
50.1 to 100	CC(C)N1CCC(N(C)C(=O)c2ccc(-n3ncc4ccccc43)cc2)CC1 [Example 72, 4-(1H-indazol-1-yl)-N-(1-isopropylpiperidin-4-yl)-N-methylbenzamide]
> 100	CN(C(=O)c1ccc(-n2ncc3ccccc32)cc1)C1CCN(C2CCC2)CC1 [Example 73, N-(1-cyclobutylpiperidin-4-yl)-4-(1H-indazol-1-yl)-N-methylbenzamide]
> 100	CN(C(=O)c1ccc(-n2ncc3ccccc32)cc1)C1CCN(C2CCCC2)CC1 [Example 74, N-(1-cyclopentylpiperidin-4-yl)-4-(1H-indazol-1-yl)-N-methylbenzamide]
> 100	CN(C(=O)c1ccc(Cn2ncc3ccccc32)cc1)[C@@H]1CCNC1 [Example 75, (R)-4-((1H-indazol-1-yl)methyl)-N-methyl-N-(pyrrolidin-3yl)benzamide]
50.1 to 100	CC(C)N1CC[C@@H](N(C)C(=O)c2ccc(Cn3ncc4ccccc43)cc2)C1 [Example 76, 4-(1H-indazol-1-ylmethyl)-N-[(3R)-1-isopropylpyrrolidin-3-yl]-N-methylbenzamide]
10.1 to 50	CN(C(=O)c1ccc(Cn2ncc3ccccc32)cc1)[C@@H]1CCN(C2CCC2)C1 [Example 77, N-[(3R)-1-cyclobutylpyrrolidin-3-yl]-4-(1H-indazol-1-ylmethyl)-N-methylbenzamide]
50.1 to 100	CN(C(=O)c1ccc(Cn2ncc3ccccc32)cc1)[C@@H]1CCN(C2CCCC2)C1 [Example 78, N-[(3R)-1-cyclopentylpyrrolidin-3-yl]-4-(1H-indazol-1-ylmethyl)-N-methylbenzamide]
